This passage reports Tg and Tg value results from patent USRE39497E1, “Storage of materials” (Nektar Therapeutics, priority 1989, dated 2007).

For data set [1] the following is noted: L. Slade and H. Levine, Pure Appl. Chem. 60 1841 (1988); cited from earlier work.
The nature of data set [2]: Glass transition temperature Tg (differential scanning calorimeter). The class given is physicochemical. As to conditions: determined by the applicant. The source says:
Tg values can be determined with a differential scanning calorimeter and can be detected as a point at which a plot of heat input against temperature passes through an inflection point—giving a maximum of the first temperature derivative.
Background: Differential scanning calorimetry records heat flow against a reference as temperature is scanned.

On to `OC[C@H]1O[C@H](O[C@H]2[C@H](O)[C@@H](O)C(O)O[C@@H]2CO)[C@H](O)[C@@H](O)[C@@H]1O` (mixture of isomers) [maltose], for which the Tg in data set [1] was 43 °C.

Molecule `OC[C@H]1O[C@@](CO)(O[C@H]2O[C@H](CO)[C@@H](O)[C@H](O)[C@H]2O)[C@@H](O)[C@@H]1O` [sucrose] showed a Tg value in data set [2] of 55 °C.

maltotriose: in data set [1], the Tg was 76 °C.
